Results: PubChem BioAssay (NCI)
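Each compound was tested at five concentrations against cells in 96-well plates for 48 hours. Abbreviation: GI50, concentration required for 50% inhibition of growth. At the TGI there is no net growth.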

What was measured:
Test in all cases: growth of human tumour cells (NCI), 48 h
SNB-19 CNS = test system: SNB-19 CNS
OVCAR-4 ovarian = test system: OVCAR-4 ovarian
CCRF-CEM leukemia = test system: CCRF-CEM leukemia
SF-539 CNS = test system: SF-539 CNS
NCI-H522 lung = test system: NCI-H522 lung
HCT-116 colon = test system: HCT-116 colon
K-562 leukemia = test system: K-562 leukemia
MDA-MB-231 breast = test system: MDA-MB-231 breast
HS 578T breast = test system: HS 578T breast
BT-549 breast = test system: BT-549 breast

Structure (SMILES)	GI50 (SNB-19 CNS)	TGI (SNB-19 CNS)	GI50 (OVCAR-4 ovarian)	TGI (OVCAR-4 ovarian)	GI50 (CCRF-CEM leukemia)	TGI (CCRF-CEM leukemia)	GI50 (SF-539 CNS)	TGI (SF-539 CNS)	GI50 (NCI-H522 lung)	TGI (NCI-H522 lung)	GI50 (HCT-116 colon)	TGI (HCT-116 colon)	GI50 (K-562 leukemia)	TGI (K-562 leukemia)	GI50 (MDA-MB-231 breast)	TGI (MDA-MB-231 breast)	GI50 (HS 578T breast)	TGI (HS 578T breast)	GI50 (BT-549 breast)	TGI (BT-549 breast)
CCC[CH2][Ge]([CH2]CCC)([CH2]CCC)[O]C(=O)C(OC(C)=O)c1ccccc1 (centres undefined)	12 µM	36.9 µM	0.166 µM	20.2 µM	0.229 µM	> 26.1 µM	7.63 µM	22.3 µM	0.304 µM	8.88 µM	0.139 µM	13.4 µM	0.202 µM	> 34 µM						
Cc1cccc2c1ccc1c3occ(C)c3c(=O)oc21	> 100 µM	> 100 µM	> 100 µM	> 100 µM	> 100 µM	> 100 µM			> 100 µM	> 100 µM	> 100 µM	> 100 µM	> 100 µM	> 100 µM	> 100 µM	> 100 µM	> 100 µM	> 100 µM		
CC1OC(n2cc(I)c(=O)[nH]c2=O)C=CC1=O (centres undefined)		32.1 µM		29.8 µM		7.74 µM		27.5 µM				24.9 µM		18 µM						
N#CC(C#N)=Cc1ccc(Oc2ccccc2)cc1		> 100 µM				> 75.4 µM		40.4 µM		61.6 µM		44 µM		> 80.4 µM						
O=[N+]([O-])c1cc([N+](=O)[O-])c(C(Cl)C(Cl)c2ccccc2)cc1C(Cl)C(Cl)c1ccccc1 (centres undefined)		6.53 µM		7.28 µM		5.96 µM		3.33 µM		3.39 µM		2.69 µM		3.58 µM						
COC(=O)C(C(=O)C(=O)Nc1ccc([N+](=O)[O-])cc1)c1nc2cc(C)c(C)cc2[nH]c1=O (centres undefined)		> 100 µM		> 100 µM		> 100 µM		> 100 µM		> 100 µM		> 100 µM		> 100 µM						
COC(=O)C1=C(C)N(NC(=O)c2cccc(Cl)c2)C(C)(O)C12CCOC2=O (centres undefined)		> 100 µM		> 100 µM				> 100 µM		> 100 µM		> 100 µM		> 100 µM						
CCOc1ccc(N=Nc2c(-c3ccccc3)nn(C(=O)CC(=O)Nc3cccc(C)c3)c2-c2ccccc2)cc1		> 100 µM		> 100 µM		> 100 µM		> 100 µM		> 100 µM		> 100 µM		> 100 µM						
C/C=C/C=C\C(=O)C1c2cccc(O)c2C(=O)c2c(O)cc(C)cc21 (centres undefined)		2.5 µM		3.3 µM		> 100 µM		1.52 µM		3.06 µM		2.92 µM		> 100 µM						
C[CH2][Sn]([Cl])([CH2]C)[CH2]C	1.97 µM	10.6 µM	1.41 µM	11 µM	0.368 µM	3.12 µM	1.01 µM	2.91 µM	0.705 µM	3.15 µM	1.33 µM	10.4 µM	0.718 µM	5 µM						
Cc1cn2c(/C=N/N=C(N)N)c(-c3cc(Cl)sc3Cl)nc2s1	1.84 µM	> 50 µM			0.76 µM	1.57 µM														
CNC(=O)OCc1cc2ccncc2c2c1[nH]c1ccccc12		> 100 µM		> 100 µM		> 100 µM		> 100 µM		> 100 µM		> 100 µM		> 100 µM						
CCOC(=O)NN(C(=O)OCC)C(C(=O)c1ccc(Cl)cc1)=C1NCCN1		> 100 µM		> 100 µM		> 100 µM		> 100 µM		> 100 µM		> 100 µM		> 100 µM						
CC(C)N(C(=O)C12C3C4C5C3C1(C#N)C5C42)C(C)C (centres undefined)		> 100 µM		> 100 µM		> 100 µM		> 100 µM		> 100 µM		> 100 µM		> 100 µM						
COc1ccc2cc(C(=O)/C=C/c3ccco3)ccc2c1	> 100 µM	> 100 µM	64.3 µM	> 100 µM					19.7 µM	58.5 µM	1.29 µM	35.6 µM	38 µM	> 100 µM	29.2 µM	> 100 µM			20.4 µM	43.8 µM
CCN1C(=O)C(N=[N+]=[N-])(c2ccccc2)C(=O)c2ccccc21 (centres undefined)		> 100 µM		> 100 µM		> 100 µM		> 100 µM		> 100 µM		> 100 µM		> 100 µM						
O=C1C2C3CCC(C2C(=O)N1CO)C1C2C(=O)N(CO)C(=O)C2C31 (centres undefined)		> 100 µM		> 58.8 µM		48.2 µM		> 85.3 µM		> 100 µM		> 54.2 µM		> 75.2 µM						
Cc1ccc(S(=O)(=O)NC(=O)C#CCOC2CCCCO2)cc1 (centres undefined)		> 100 µM		> 100 µM		> 100 µM		> 100 µM				> 100 µM		> 100 µM						

Structure (SMILES)	GI50 (SNB-19 CNS)	TGI (SNB-19 CNS)	GI50 (OVCAR-4 ovarian)	TGI (OVCAR-4 ovarian)	GI50 (CCRF-CEM leukemia)	TGI (CCRF-CEM leukemia)	GI50 (SF-539 CNS)	TGI (SF-539 CNS)	GI50 (NCI-H522 lung)	TGI (NCI-H522 lung)	GI50 (HCT-116 colon)	TGI (HCT-116 colon)	GI50 (K-562 leukemia)	TGI (K-562 leukemia)	GI50 (MDA-MB-231 breast)	TGI (MDA-MB-231 breast)	GI50 (HS 578T breast)	TGI (HS 578T breast)	GI50 (BT-549 breast)	TGI (BT-549 breast)
O=C1C(Cl)=C(Nc2cccc(O)c2)C(=O)N1c1ccc(Cl)cc1Cl	29.9 µM	> 100 µM	43.2 µM	> 100 µM	17.5 µM	46.9 µM			13.8 µM	32.9 µM	24.3 µM	97.6 µM	22 µM	58.1 µM	23.3 µM	77.5 µM			13.9 µM	54.6 µM
CCOC(=O)/C(=C/c1ccc(Cl)cc1)N(CC)CC				> 100 µM		> 100 µM		> 100 µM		> 100 µM		> 100 µM		> 100 µM						
COc1ccc(NC(=O)CC(=O)n2nc(-c3ccccc3)c(N=Nc3ccccc3C)c2-c2ccccc2)cc1		> 69.7 µM		59.5 µM		> 100 µM		28.8 µM		47.8 µM		47.9 µM		> 100 µM		> 100 µM		35.6 µM		
O=c1nc(-c2ccccc2)scc1-c1ccccc1		> 100 µM		> 100 µM		> 100 µM		> 100 µM		> 100 µM		> 100 µM		> 100 µM						
COc1cccc(N2C(=O)[C@H]3[C@H]4CC(C(C)(C)C)CC[C@H]4c4c([nH]c5ccccc45)[C@H]3C2=O)c1 (some centres undefined)		33.9 µM				29.7 µM		42.1 µM		45.7 µM				29 µM						
Cc1cc2c(=O)c3ccccc3oc2c(C#N)c1C		> 100 µM		> 100 µM		> 100 µM						> 100 µM		> 100 µM				> 100 µM		
CO[C@]12CCC(=O)N1C=Cc1c2[nH]c2ccccc12		> 100 µM		> 100 µM		> 100 µM		> 100 µM				> 100 µM		> 100 µM						
O=C(CC(=O)c1cccc([N+](=O)[O-])c1)C(=O)Nc1nc([N+](=O)[O-])cs1		> 100 µM		> 100 µM		> 100 µM		> 100 µM		> 100 µM		> 100 µM		> 100 µM						
NC(=O)OCC(COc1ccc(Cl)cc1)OC(=O)c1cc([N+](=O)[O-])cc([N+](=O)[O-])c1 (centres undefined)		> 100 µM				> 100 µM		> 100 µM		> 100 µM		> 100 µM		> 100 µM						
O=C(O)CP(=O)(c1ccccc1)c1ccccc1.O=C(O)CP(=O)(c1ccccc1)c1ccccc1.[Cd]	48.1 µM	> 100 µM	13.3 µM	34.1 µM			11.4 µM	26.2 µM	0.403 µM	2.77 µM	20 µM	47.3 µM	15.1 µM	36.8 µM	15.7 µM	32.2 µM	19.4 µM	> 100 µM		
CN1CCc2cc(O)c3cc2C1Cc1ccc(cc1)Oc1cc(ccc1O)CC1c2c(cc4c(c2O3)OCO4)CCN1C (centres undefined)		> 100 µM		88.6 µM		> 100 µM		32.6 µM				> 100 µM		39.4 µM						
CC(=O)OCc1c(C)c2ccccc2n1C(C)=O		> 100 µM		> 100 µM		73.6 µM		> 100 µM		39.2 µM		> 100 µM		71.5 µM						
COc1ccc(C(=O)c2cc(OC)c(OC)c(OC)c2)cc1/C=C/C(=O)c1ccc2c(c1)OCO2			5.05 µM	> 100 µM	0.583 µM	> 100 µM							0.377 µM	> 100 µM	2.35 µM	54.3 µM	4.56 µM	> 100 µM		
O=C(NCCCCCCNC(=O)NC1OCC(O)C(O)C1O)NC1OCC(O)C(O)C1O (centres undefined)				> 100 µM		> 100 µM		> 100 µM		> 100 µM		> 100 µM		> 100 µM						
CSC1CC2C(CC1(C)SC)C2(C)C (centres undefined)		> 100 µM		> 100 µM		84.2 µM		> 100 µM		> 100 µM				81.8 µM						
Nc1nc(Cl)nc2c1ncn2C1CCC(COP(=O)(O)OP(=O)(O)OP(=O)(O)O)O1 (centres undefined)		> 100 µM		77.8 µM		> 100 µM		> 100 µM		> 100 µM		> 100 µM				> 100 µM		> 100 µM		
COc1cc2c(cc1OC)C1(c3ccccc3)ON=C(c3ccccc3)N1CS2 (centres undefined)		> 100 µM		> 100 µM		> 100 µM		> 100 µM		> 100 µM		> 100 µM		> 100 µM						
CC1=C2[C@@H](c3ccccc3)C3C=CC2(c2ccccc23)N(C(=O)Nc2cccc3ccccc23)C1=O (some centres undefined)		> 100 µM		> 100 µM		> 100 µM		> 100 µM				> 100 µM		> 100 µM						
